“Also recorded” adds a separate entry of the source.
Columns and labels:
C57BL/6J mice = test: Liver histology in normal diet or HFD fed mice; format: in vivo, mouse; conditions: for liver steatosis in liver sections of obese mice: HFD
Experimental: (§1) C57BL/6J male mice, aged between 6 to 10 weeks (16-20 g), were obtained from Janvier Labs (France). They were housed individually in a controlled environment with a 12 h light/dark cycle with food (SAFE, France) and water ad libitum. The palm oil (Huilerie Vigean, France) was the main fat component in high-fat diets. The high-fat diet was prepared weekly and stored at 4° C. until further use. The study was conducted as per Declaration of Helsinki and European ethical guidelines for the care and use of animals for experimentation. All the experimental protocols (protocol number: 16158) were approved by the Regional Ethical Committee of the University of Burgundy (Dijon, France).
(§2) The mice were grouped at random (n=10/group) and fed with either of the following diets: standard diet (STD) or high-fat diet (HFD). The body weight, food, and water intake were measured, weekly.
(§3) After 10 weeks of feeding the diets, obese animals were divided into two groups: one groups continued to be fed on the same HFD; however, another group was fed on the same diet and received either NKS-3 or NKS-5) until 28th of weeks of experimentation. At the end, the animals were sacrificed, under a fasting condition, and used for different analysis in blood and different tissues.
The liver of the mice at the time of sacrifice were fixed in formaldehyde and then dehydrated by passaging into ethanoic media. The liver tissues were embedded into the paraffin and 5μ thick section were cut by the microtome as per standard procedures. The slides, containing tissues, were stained by hematoxylin and eosin dyes as per standard methods. The stained slides were observed under Zeiss light microscope at 10× or 20× magnifications.

CD36 = molecular target: T1, CD36 (Mus musculus, UniProt Q08857); test: Ca2+ signaling in mouse taste bud cells in presence or absence of CD36 inhibitor SSO; format: cell-based; conditions: for action of CD36 inhibitor SSO on the increase in [Ca2+]i: 20 μM SSO, mouse taste bud cells; for CD36 agonist character: judged from suppression by SSO
T1 construct: freshly isolated and primary cultured mice type II taste bud cells (expressing GPR120 and CD36) are used; endogenous in cells; host or cells: primary mouse taste bud cells from fungiform papillae
T1 sequence (Q08857 whole entry): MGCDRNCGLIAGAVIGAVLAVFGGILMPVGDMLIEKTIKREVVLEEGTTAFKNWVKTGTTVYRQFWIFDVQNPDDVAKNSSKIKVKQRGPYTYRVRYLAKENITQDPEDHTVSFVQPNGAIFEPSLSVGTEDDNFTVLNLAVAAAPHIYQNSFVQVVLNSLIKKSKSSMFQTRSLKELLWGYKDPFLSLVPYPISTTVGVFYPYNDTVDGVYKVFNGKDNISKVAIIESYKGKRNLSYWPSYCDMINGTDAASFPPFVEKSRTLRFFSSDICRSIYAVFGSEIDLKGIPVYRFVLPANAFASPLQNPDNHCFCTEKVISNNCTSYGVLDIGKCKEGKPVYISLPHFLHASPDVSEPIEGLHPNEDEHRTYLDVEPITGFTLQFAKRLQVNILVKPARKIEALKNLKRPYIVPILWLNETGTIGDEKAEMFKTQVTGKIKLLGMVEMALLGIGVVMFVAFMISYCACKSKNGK
Experimental: (§4) The mouse taste bud cells were seeded in 24-well plates (with glass bottom), containing poly-D-lysine for better adhesion to the surface. After 24 h, taste cells were incubated for 45 minutes with a fluorescent probe, Fura-2/AM (1 μM) in calcium buffer (110 mM NaCl, 5.4 mM, KCl, 25 mM, NaHCO3, 0.8 mM, MgCl2, 0.4 mM, KH2PO4, 20 mM, Hepes-Na, 0.33 mM, NaHPO4, 1.2 mM, CaCl2, pH 7.4). Then, the cells are washed with phosphate buffer saline (PBS) and taken up in calcium buffer.
(§5) The changes in intracellular Ca^2+ (F340/F380) were monitored under a Nikon microscope (TiU) by using an S Fluor 40× oil immersion objective.
(§6) Especially, the increases in [Ca^2+ ]i were measured as follows: the mice taste bud cells were cultured on Willico-Dish wells with a glass bottom and loaded with a fluorescent probe, Fura-2/AM. The changes in intracellular Ca^2+ (F340/F380) were monitored under the Nikon microscope (TiU) by using S-fluor 40× oil immersion objective. The planes were taken at Z intervals of 0.3 μm, and NIS-Elements software was used to deconvolve the images. The microscope was equipped with EM-CCD (Lucas) camera for real time recording of 16-bit digital images. The dual excitation fluorescence imaging system was used for studies of individual cells. The changes in intracellular Ca^2+ were expressed as ΔRatio, which was calculated as the difference between the peak F340/F380 ratio. The data were summarized from the large number of individual cells (20-40 cells in a single run, with 3-9 identical experiments done in at least three cell preparations). The results were analyzed with the NIS-elements software, the variation in [Ca^2+]i is expressed as Δ ratio (F340/F380 which was calculated with the difference of spectra at two wavelengths, i.e., 340 nm and 380 nm.
CD36: in order to assess if the linoleic acid derivatives according to the invention exert their actions via CD36, sulfo-N-succinimidyl oleate (SSO) was used. SSO is a CD36 inhibitor/blocker/antagonist.
Experiments were performed in the presence or absence of SSO with respect to calcium signaling to verify whether our analogs act well via this lipid receptor. Especially, for this assay, NKS-3, NKS-5 and linoleic acid (control) were tested.

mouse taste bud cells = test: Ca2+ signaling (Fura-2/AM, F340/F380) in mouse taste bud cells; format: cell-based; conditions: for EC50: 0 to 200 μM, Δ ratio F340/F380, n=6, read-out: EC50 of dose-dependent increases in [Ca2+]i
Experimental: Briefly, lingual epithelium was separated by enzymatic dissociation which contained the following: elastase and dispase mixture, 2 mg/ml each, in Tyrode's buffer (120 mM NaCl; 5 mM KCl; 10 mM HEPES ((4-(2-hydroxyethyl)-1-piperazineethanesulfonic acid); 1 mM CaCl2; 1 mM MgCl2; 10 mM glucose; 10 mM Na pyruvate, pH 7.4). The taste bud cells were isolated by incubating lingual epithelium in RPMI 1640 medium containing 2 mM EDTA, 1.2 mg/ml elastase, 0.6 mg/ml collagenase (type 1), and 0.6 mg/ml trypsin inhibitor at 37° C. for 10 minutes, followed by centrifugation (600 g, 10 minutes). The cell populations, after separation, were suspended in fresh RPMI 1640 medium containing 10% fetal calf serum, 200 U/ml penicillin, and 0.2 mg/ml streptomycin, seeded onto a Poly-D-Lysine-coated dishes, and cultured for 24 hours. At the end of this period, the cells were used for the experiments or stained with trypan blue to assess their viability.
as §4, §5, §6

obese C57BL/6J mice [1] = test: Diet-induced obesity, body weight; format: in vivo, mouse; conditions: for body weight in obese mice: HFD, analogues in feeder bottles from 10th to 28th week, NKS-5 75 μM, NKS-3 50 μM; for body weight of control animals: normal diet
Experimental: as §1, §2, §3
In order to elucidate the beneficial effects and especially during obesity, experiments were conducted on obese C57BL/6J mice. […] In order to test the curative/interventional effects on obesity, the animals were divided into two groups: one group that consume only the high-fat diet (HFD) and the other consuming the same diet and also receiving NKS-3 or NKS-5 in adlibitum baby bottles/feeders. From the 10th week of the diet, lipid analogues were introduced into the bottles at concentrations that corresponded to their preference in the double choice test (NKS-5 at 75 μM; NKS-3 at 50 μM). […] In addition, the decrease in obesity was maintained until the 28th week of feeding a HFD (FIGS. 13A and 13B).

obese C57BL/6J mice [2] = test: Blood biochemical parameters in diet-induced obese mice (ELISA, automatic analyzer); format: in vivo, mouse; conditions: obese animals
Experimental: as §1, §2, §3
The rat/mouse insulin ELISA kit was obtained from EMD Millipore (USA). ELISA kits for CCK, PYY and GLP-1 were purchased from Cloud-Clone Corp. (USA). The ALAT (Alanine Amino Transferase) was determined by an automatic analyzer (Gilford Model 2000 system, a Beckman System T.R).

GPR120 = molecular target: T2, GPR120 (Mus musculus, UniProt Q7TMA4); test: Ca2+ signaling in mouse taste bud cells in presence or absence of GPR120 antagonist AH7614; format: cell-based; conditions: AH7614 20 μM, NKS-5 50 μM
T2 construct: freshly isolated and primary cultured mice type II taste bud cells (expressing GPR120 and CD36) are used; endogenous in cells; host or cells: primary mouse taste bud cells from fungiform papillae
T2 sequence (Q7TMA4 1-361): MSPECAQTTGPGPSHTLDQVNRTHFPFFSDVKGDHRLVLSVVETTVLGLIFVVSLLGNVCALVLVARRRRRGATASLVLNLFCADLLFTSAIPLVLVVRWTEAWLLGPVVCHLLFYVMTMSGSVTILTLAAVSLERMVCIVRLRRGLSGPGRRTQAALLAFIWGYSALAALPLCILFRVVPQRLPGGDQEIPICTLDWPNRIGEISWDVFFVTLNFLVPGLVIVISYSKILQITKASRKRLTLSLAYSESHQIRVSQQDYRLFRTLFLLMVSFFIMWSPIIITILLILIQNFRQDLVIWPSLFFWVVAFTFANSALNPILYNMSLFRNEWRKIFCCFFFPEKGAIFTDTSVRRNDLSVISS
Experimental: as §4, §5
as §6, with “The planes were taken at Z intervals of 0.3 μm, and NIS-Elements software was used to deconvolve the images. The microscope was equipped with EM-CCD (Lucas) camera for real time recording of 16-bit digital images.” left out, “The data were summarized from the large number of individual cells (20-40 cells in a single run, with 3-9 identical experiments done in at least three cell preparations).” left out, “nm. […]” for “nm.”

mice (C57Bl/6 black) = test: Two-bottle preference test; format: in vivo, mouse; conditions: for ratio of LA preferred concentration to that of test compound: LA preferred at 7.13 mM or 0.2%; for preference versus control solution (xanthan gum) / effect on palatability of a sucrose-containing solution / preferred (optimal) concentration in two-bottle preference test: 12 h; for preference versus control solution (xanthan gum): 0.3% xanthan gum, test compound 10 to 200 μM or linoleic acid 0.2% (v/v); for effect on palatability of a sucrose-containing solution: sucrose versus sucrose plus test compound 50 μM; for preferred (optimal) concentration in two-bottle preference test: versus xanthan gum
Experimental: Eight weeks old, male mice (C57Bl/6 black) were purchased from the Janvier Elevage (Le Mans) and used for these experiments.
The mice are placed individually in cages in a controlled environment (humidity and constant temperature) and have free access to a standard diet. 6 hours before the tests, the mice are deprived of water.
During the behavioral experiments, the mice were offered two bottles simultaneously for 12 hours (night period).
The mice are subjected to a choice between the “control” solution and the experimental solution.
Experiment 1 (FIG. 5, FIG. 6A, FIG. 7) • control solutions contain 0.3% xanthan gum, w/v, (Sigma Life Science, USA) in water to reproduce lipid texture and minimize bias due to differences in appearance between the two bottles; • the experimental solution contains, in addition to xanthan gum, 0.3% (w/v), either the “test compound” according to the invention at a concentration varying from 10 to 200 μM (NKS-3, FIG. 6A or NKS-5, FIG. 7) or linoleic acid at 0.2% (v/v) (control test, FIG. 5). To avoid the preference for one side, the position of each bottle is changed during each test.
Experiment 2 (FIG. 6B and FIG. 8): gustatory properties • control solutions contain 2% of sucrose (w/v); • the experimental solution contains, in addition to sucrose (2% w/v), the “test compound” according to the invention (NKS-3, FIG. 6B or NKS-5, FIG. 8) at a concentration of 50 μM.
To estimate the consumption of control and experimental solutions, the bottles are weighed before and after each experiment. The mice are allowed to take rest for 48 hours between each experiment.

CCCCC/C=C\C/C=C\CCCCCCCC(=O)OCC1(C)COC1 [NKS-5, (9Z,12Z)-(3-methyloxetan-3-yl)methyl octadeca-9,12-dienoate]
liver steatosis in liver sections of obese mice (C57BL/6J mice): curative effects
liver histology, normal diet fed mice (C57BL/6J mice): did not exert any effect
action of CD36 inhibitor SSO on the increase in [Ca2+]i (CD36): partially inhibited; also recorded: curtailed, but not completely suppressed
CD36 agonist character (CD36): partial agonist
increase in [Ca2+]i (mouse taste bud cells): very rapid
EC50 (mouse taste bud cells): 30 ± 0.01 µM
body weight in obese mice (obese C57BL/6J mice [1]): significant decrease in body weight
body weight of control animals (obese C57BL/6J mice [1]): no effect
blood concentration of ALAT (obese C57BL/6J mice [2]): decreased
circulating concentrations of IL-6 (obese C57BL/6J mice [2]): decrease
insulin concentrations (obese C57BL/6J mice [2]): decreases
effect of GPR120 inhibitor AH7614 on the increase in [Ca2+]i (GPR120): significantly curtailed, but not suppressed
ratio of LA preferred concentration to that of test compound (mice (C57Bl/6 black)): 93 times
preference versus control solution (xanthan gum) (mice (C57Bl/6 black); mice): spontaneous preference
effect on palatability of a sucrose-containing solution (mice (C57Bl/6 black); mice): increases the palatability
preferred (optimal) concentration in two-bottle preference test (mice (C57Bl/6 black); mice): 75 µM

CCCCC/C=C\C/C=C\CCCCCCCCP(=O)(OCC)OCC [NKS-3, diethyl (9Z,12Z)-octadeca-9,12-dien-1-ylphosphonate]
liver steatosis in liver sections of obese mice (C57BL/6J mice): curative effects
liver histology, normal diet fed mice (C57BL/6J mice): did not exert any effect
action of CD36 inhibitor SSO on the increase in [Ca2+]i (CD36): completely blocked; also recorded: completely suppressed
CD36 agonist character (CD36): complete CD36 agonist
increase in [Ca2+]i (mouse taste bud cells): very rapid
EC50 (mouse taste bud cells): 25 ± 0.01 µM
body weight in obese mice (obese C57BL/6J mice [1]): significant decrease in body weight
body weight of control animals (obese C57BL/6J mice [1]): no effect
blood concentration of ALAT (obese C57BL/6J mice [2]): decreased
circulating concentrations of IL-6 (obese C57BL/6J mice [2]): decrease
insulin concentrations (obese C57BL/6J mice [2]): decreases
ratio of LA preferred concentration to that of test compound (mice (C57Bl/6 black)): 140 times
preference versus control solution (xanthan gum) (mice (C57Bl/6 black); mice): spontaneous preference
effect on palatability of a sucrose-containing solution (mice (C57Bl/6 black); mice): failed to enhance the palatability
preferred (optimal) concentration in two-bottle preference test (mice (C57Bl/6 black); mice): 50 µM

CCCCC/C=C\C/C=C\CCCCCCCC(=O)O [Linoleic acid, linoleic acid]
action of CD36 inhibitor SSO on the increase in [Ca2+]i (CD36; listed as LA): completely blocked; also recorded: suppressed
increase in [Ca2+]i (mouse taste bud cells): huge increase
preference versus control solution (xanthan gum) (mice (C57Bl/6 black); mice): strong preference
concentration preferred in two-bottle preference test (mice (C57Bl/6 black); mice, 7.13 mM or 0.2%): 7.13 mM

— patent publication US11981695B2, “Linoleic acid derivatives, pharmaceutical composition or food composition comprising said linoleic acid derivatives, and their uses” (UNIVERSITÉ DE BOURGOGNE, priority 2018, dated 2024)
